Source: US9896458B2, “Compounds, compositions and methods” (Denali Therapeutics Inc., priority 0216, dated 2018)
Read-outs that look alike come from different tables or passages of the source.

What was measured:
[1] = Metabolic stability (hepatocytes); format: in vitro ADME; conditions: human cryopreserved hepatocytes, well-stirred model
From the text: Hepatic clearance is expressed as mL/min/kg.

[2] = system: TNF/zVAD induced temperature loss; conditions: dose of 30 mg/kg, from WO 2014/125444 Table 2; cited from earlier work
[3] = in vivo
Experimental: (§1) The protein binding in plasma was determined using a Rapid Equilibrium Dialysis Device (Thermo Scientific RED Device) or 96-well dialyzer apparatus (HTDialysis LLC). […] If required, plasma samples were pre-incubated (2 hours at 37° C.) with diisopropyl fluorophosphate (DFP) at the final concentration of 100 μM to prevent compound degradation due to amide hydrolysis. Appropriate volumes of spiked samples along with blank phosphate buffer were added to either device and incubated at 37° C. for a total of 5 hours with agitation at 500 rpm. Following incubation, an equal aliquot of dialysed matrix (plasma or buffer) is added to an equal volume of the opposite blank matrix such that the volume of buffer to plasma are equal. Mixed matrix samples were extracted by protein precipitation using acetonitrile containing the appropriate IS. Samples were then centrifuged for 10 min at 2800 rpm. Supernatants were collected and diluted and then injected on to an HPLC-MS/MS or UPLC-MS/MS system. Samples were analyzed by monitoring the appropriate parent/daughter ion transitions for the test and control compounds. The peak area ratios were used to measure test item concentrations. The fraction unbound (Afu) was determined as the ratio of the peak area ratio in buffer divided by the peak area ratio in plasma.
(§2) The PK properties of test articles were determined in male Sprague-Dawley Crl:CD(SD) rats, male Beagle dogs and male cynomolgus monkeys. Studies were conducted to the highest standards of animal welfare in accordance with national legislation and under approval of the internal animal care and use committees.
(§3) Compounds were administered by IV bolus to animals following an overnight fast. […] The formulations were administered at dose volumes ranging from 0.5-2 mL/kg. The IV dose ranged from 0.5-1 mg/kg.
(§4) Following dose administration, 8-9 serial blood samples were collected over 24 hours. Samples were mixed with anticoagulant and placed on wet ice prior to processing. Plasma was harvested following centrifugation, extracted using protein precipitation with acetonitrile containing IS. The processed supernatant was analyzed using UPLC or LC-MS/MS using specific parent/daughter ion pairs for the test article and IS. Plasma concentrations were determined using a calibration curve prepared using known concentrations of analyte. Pharmacokinetic parameters utilizing measured concentrations were calculated using Phoenix WinNonlin. The unbound plasma clearance was calculated as the ratio of the total body clearance divided by the fraction unbound in plasma.

[4] = in vivo; remark: listed apart in the source
Experimental: as §1
The PK properties of test articles were determined in male Sprague-Dawley Crl:CD(SD) rats, male Beagle dogs and male cynomolgus monkeys. […]
Following dose administration, 8-9 serial blood samples were collected over 24 hours. […] The processed supernatant was analyzed using UPLC or LC-MS/MS using specific parent/daughter ion pairs for the test article and IS. Plasma concentrations were determined using a calibration curve prepared using known concentrations of analyte. Pharmacokinetic parameters utilizing measured concentrations were calculated using Phoenix WinNonlin. The unbound plasma clearance was calculated as the ratio of the total body clearance divided by the fraction unbound in plasma.

[5] = system: TNF/zVAD induced temperature loss; test: TNF-driven systemic inflammatory response syndrome model (TNF/zVAD); format: in vivo; conditions: mice, 5 mg/kg oral, 15 minutes before intravenous TNF/zVAD
From the text: The in vivo efficacy of compounds can be determined in mice using a TNF-driven systemic inflammatory response syndrome model as described by Duprez et. al. (2011, Immunity 35(6), 908-918) and Berger et. al. (2015, Cell Death Disc. 1, 15009). In this model system TNF/zVAD (tumor necrosis factor/Z-Val-Ala-DL-Asp-fluoromethylketone, a caspase inhibitor) treatment results in temperature loss and the production of several inflammatory cytokines. The ability of a test compound to inhibit these inflammatory effects can be measured in this model by dosing mice with test compound 15 minutes before administration of TNF/zVAD and measuring the inflammatory response. The dose required to inhibit the inflammatory response is a measure of the compounds efficacy at that dose. Using this model, Compound 42 was orally pre-dosed at 5 mg/kg 15 minutes before intraveneous administration of TNF/zVAD and temperature loss in the mice was measured by an implanted temperature chip. […] The decrease in dosing has a number of important potential advantages, including requiring less frequent administration to a patient, increased patient compliance, and improved safety profile such as lower toxicities while achieving similar efficacy.

[6] = cynomolgus monkey, in vivo
Experimental: as §1, §2, §3, §4

[7] = system: FADD-deficient Jurkat cells; test: cellular necroptosis assay (human TNFα induced); format: cell-based; conditions: 48 h, human TNFα 10 ng/mL, viability after 48 h, CellTiter-Glo, read-out: Cell IC50
[8] = male, Sprague-Dawley Crl:CD(SD)

CN1C(=O)[C@@H](NC(=O)c2nnc(Cc3ccccc3)[nH]2)COc2ccccc21 [A, reference compound]
Human hepatocyte CLhep Avg [1]: 6.8 mL/min/kg | inhibition of temperature loss [2]: 93% | Rat unbound CL [3, 8]: 77 mL/min/kg | Dog unbound CL ([4]; male, Beagle): 240 mL/min/kg

CN1C(=O)[C@@H](NC(=O)c2nnc(Cc3ccccc3)o2)COc2ccccc21 [B, reference compound]
Human hepatocyte CLhep Avg [1]: 14 mL/min/kg

CN1C(=O)[C@@H](NC(=O)c2cc(Cc3ccccc3)on2)COc2ccccc21 [C, reference compound]
Human hepatocyte CLhep Avg [1]: 19 mL/min/kg

CN1C(=O)[C@@H](NC(=O)c2cc(C3(c4ccccc4)CC3)on2)COc2ccccc21 [Example 8, (S)-N-(5-methyl-4-oxo-2,3,4,5-tetrahydrobenzo[b][1,4]oxazepin-3-yl)-5-(1-phenylcyclopropyl)isoxazole-3-carboxamide]
Rat unbound CL [3, 8]: 3700 mL/min/kg

CN1C(=O)[C@@H](NC(=O)c2nnc(Cc3ccccc3)[nH]2)COc2cccnc21 [Example 42, (S)-5-benzyl-N-(5-methyl-4-oxo-2,3,4,5-tetrahydropyrido[3,2-b][1,4]pxazepin-3-yl)-4H-1,2,4-triazole-3-carboxamide]
Human hepatocyte CLhep Avg [1]: 0.8 mL/min/kg | inhibition of temperature loss [5]: 96%

CN1C(=O)[C@@H](NC(=O)c2nc(Cc3ccccc3)n[nH]2)COc2cccnc21 [Example 42]
Rat unbound CL [3]: 22 mL/min/kg | Dog unbound CL [4]: 64 mL/min/kg | Cyno unbound CL [6]: 42 mL/min/kg

CN1C(=O)[C@@H](NC(=O)c2nnc(C3(c4ccccc4)CC3)o2)COc2cccnc21 [Example 66, (S)-N-(5-methyl-4-oxo-2,3,4,5-tetrahydropyrido[3,2-b][1,4]oxazepin-3-yl)-5-(1-phenylcyclopropyl)-1,3,4-oxadiazole-2-carboxamide]
Human hepatocyte CLhep Avg [1]: 6.3 mL/min/kg | Dog unbound CL ([4]; male, Beagle): 36 mL/min/kg

O=C(N[C@H]1COc2ccccc2-n2ccnc21)c1cc(Cc2ccccc2)on1 [Example 70A, (R)-5-benzyl-N-(4,5-dihydrobenzo[b]imidazo[1,2-d][1,4]oxazepin-4-yl)isoxazole-3-carboxamide]
IC50 [7]: 0.1 to 1000 nM

CN1C(=O)[C@@H](NC(=O)c2nnc(Cc3ccccc3)[nH]2)[C@H]2C[C@H]2c2cccnc21 [Example 75A, 5-benzyl-N-((1aS,2S,8bR)-4-methyl-3-oxo-1,1a,2,3,4,8b-hexahydrocyclopropa[d]pyrido[2,3-b]azepin-2-yl)-4H-1,2,4-triazole-3-carboxamide]
Human hepatocyte CLhep Avg [1]: 9.1 mL/min/kg | Rat unbound CL [3, 8]: 91 mL/min/kg | Cyno unbound CL ([6]; male): 93 mL/min/kg

CN1C(=O)[C@@H](NC(=O)c2cc(C3(c4ccccc4)CC3)on2)COc2cccnc21 [Example 77, (S)-N-(5-methyl-4-oxo-2,3,4,5-tetrahydropyrido[3,2-b][1,4]oxazepin-3-yl)-5-(1-phenylchclopropyl)isoxazole-3-carboxamide]
Human hepatocyte CLhep Avg [1]: 19 mL/min/kg

O=C(N[C@@H]1C(=O)Nc2c(F)cc(F)cc2[C@@H]2C[C@H]12)c1nnc(Cc2ccccc2)[nH]1 [Example 83A, 5-benzyl-N-((1aS,2S,8bR)-5,7-difluoro-3-oxo-1,1a,2,3,4,8b-hexahydrobenzo[b]cyclopropa[d]azepin-2-yl)-4H-1,2,4-triazole-3-carboxamide]
Human hepatocyte CLhep Avg [1]: 1.0 mL/min/kg | Cyno unbound CL ([6]; male): 82 mL/min/kg

C[C@H]1Oc2cccnc2N(C)C(=O)[C@H]1NC(=O)c1nn(Cc2ccccc2)cc1F [Example 92, 1-benzyl-N-((2R,3S)-2,5-dimethyl-4-oxo-2,3,4,5-tetrahydropyrido[3,2-b][1,4]oxazepin-3-yl)-4-fluoro-1H-pyrazole-3-carboxamide]
Rat unbound CL [3, 8]: 420 mL/min/kg

C[C@H]1Oc2cccnc2N(C)C(=O)[C@H]1NC(=O)c1nnc(Cc2ccccc2)[nH]1 [Example 94, 5-benzyl-N-((2R,3S)-2,5-dimethyl-4-oxo-2,3,4,5-tetrahydropyrido[3,2-b][1,4]oxazepin-3-yl)-4H-1,2,4-triazole-3-carboxamide]
Rat unbound CL [3, 8]: 44 mL/min/kg | Cyno unbound CL ([6]; male): 40 mL/min/kg

C[C@H]1Oc2cccnc2N(C)C(=O)[C@H]1NC(=O)c1nnc(Cc2ccccc2)o1 [Example 134, 5-Benzyl-N-((2R,3S)-2,5-dimethyl-4-oxo-2,3,4,5-tetrahydropyrido[3,2-b][1,4]oxazepin-3-yl)-1,3,4-oxadiazole-2-carboxamide]
Rat unbound CL [3, 8]: 100 mL/min/kg | Cyno unbound CL ([6]; male): 140 mL/min/kg

CN1C(=O)[C@@H](NC(=O)c2nnc(Cc3ccccc3)o2)COc2cccnc21 [Example 146, (S)-5-benzyl-N-(5-methyl-4-oxo-2,3,4,5-tetrahydropyrido[3,2-b][1,4]oxazepin-3-yl)-1,3,4-oxadiazole-2-carboxamide]
Rat unbound CL [3, 8]: 61 mL/min/kg | Cyno unbound CL ([6]; male): 39 mL/min/kg

CN1C(=O)[C@@H](NC(=O)c2ncn(Cc3cccc(C#N)c3)n2)COc2cccnc21 [Example 171, (S)-1-(3-cyanobenzyl)-N-(5-methyl-4-oxo-2,3,4,5-tetrahydropyrido[3,2-b][1,4]oxazepin-3-yl)-1H-1,2,4-triazole-3-carboxamide]
Rat unbound CL [3, 8]: 32 mL/min/kg

C[C@H]1Oc2cccnc2N(C)C(=O)[C@H]1NC(=O)c1ncn(Cc2cccc(C#N)c2)n1 [Example 172]
Rat unbound CL [3]: 65 mL/min/kg

CN1C(=O)[C@@H](NC(=O)c2nnc(Cc3ccccc3)o2)[C@H]2C[C@H]2c2nccnc21 [Example 177A]
Rat unbound CL [3]: 55 mL/min/kg | Cyno unbound CL [6]: 58 mL/min/kg

CN1C(=O)[C@@H](NC(=O)c2cn(Cc3ccccc3)nn2)[C@H]2C[C@H]2c2nccnc21 [Example 195, 1-benzyl-N-((7S,7aS,8aR)-5-methyl-6-oxo-5,6,7,7a,8,8a-hexahydrocyclopropa[d]pyrazino[2,3-b]azepin-7-yl)-1H-1,2,3-triazole-4-carboxamide]
IC50 [7]: 16 nM
